Assay results reported in the NIST ThermoML archive (doi:10.1021/je9004036).
Where “and” joins values, the source holds several entries; their conditions need not be identical. Equal values may be shown once.

Legend:
[1] = for vapor or sublimation pressure: Liquid, Calculated from knudsen effusion weight loss; for Normal melting temperature: Crystal, DTA
[2] = Molar enthalpy of transition or fusion; settings: Crystal 1; DSC

COc1cccc(C(=O)O)c1N [2-amino-3-methoxybenzoic acid]
[1]
Settings	vapor or sublimation pressure
349.12 K	0.000123 kPa and 0.000121 kPa
351.18 K	0.000152 kPa and 0.00015 kPa and 0.000149 kPa
353.19 K	0.000194 kPa and 0.000186 kPa and 0.000183 kPa
355.13 K	0.000235 kPa and 0.000232 kPa and 0.000234 kPa
357.18 K	0.000297 kPa and 0.000285 kPa and 0.000283 kPa
359.12 K	0.000362 kPa and 0.000356 kPa and 0.000355 kPa
360.13 K	0.000407 kPa and 0.000404 kPa and 0.0004 kPa
361.16 K	0.000446 kPa and 0.000437 kPa and 0.000431 kPa
363.18 K	0.000552 kPa and 0.000537 kPa and 0.000527 kPa
367.18 K	0.000847 kPa and 0.000823 kPa and 0.000808 kPa
369.18 K	0.001031 kPa and 0.001004 kPa and 0.000983 kPa

Settings	Molar enthalpy of transition or fusion [kcal/mol]	Normal melting temperature [°C]
[1]	–	169.86
[2]	5.79	–

COc1ccc(N)c(C(=O)O)c1 [2-amino-5-methoxybenzoic acid]
[1]
Settings	vapor or sublimation pressure
353.13 K	0.0001 kPa and 0.000101 kPa
355.15 K	0.000131 kPa and 0.000128 kPa and 0.00013 kPa
357.2 K	0.000159 kPa and 0.000158 kPa
359.18 K	0.000202 kPa and 0.000196 kPa and 0.000195 kPa
361.15 K	0.000251 kPa and 0.000249 kPa and 0.000252 kPa
363.2 K	0.000316 kPa and 0.000304 kPa and 0.000306 kPa
365.18 K	0.000384 kPa and 0.000376 kPa
367.16 K	0.000479 kPa and 0.000458 kPa and 0.000447 kPa
369.18 K	0.000577 kPa and 0.000562 kPa and 0.000553 kPa
371.14 K	0.000723 kPa and 0.000704 kPa and 0.000716 kPa
373.17 K	0.000898 kPa and 0.000864 kPa and 0.000856 kPa
375.17 K	0.001076 kPa and 0.001049 kPa and 0.001039 kPa

Settings	Molar enthalpy of transition or fusion [kcal/mol]	Normal melting temperature [°C]
[1]	–	151.81
[2]	5.47	–

COc1cc(C(=O)O)ccc1N [4-amino-3-methoxybenzoic acid]
[1]
Settings	vapor or sublimation pressure
373.14 K	0.000103 kPa and 0.000102 kPa
375.15 K	0.00013 kPa and 0.000127 kPa and 0.000126 kPa
377.18 K	0.000163 kPa and 0.000156 kPa and 0.000153 kPa
379.17 K	0.000192 kPa and 0.000186 kPa and 0.000196 kPa
381.17 K	0.00025 kPa and 0.00024 kPa and 0.000232 kPa
383.18 K	0.000301 kPa
385.16 K	0.000384 kPa and 0.000376 kPa and 0.000374 kPa
387.17 K	0.000476 kPa and 0.000455 kPa and 0.000444 kPa
389.16 K	0.000587 kPa and 0.000573 kPa and 0.00057 kPa
391.17 K	0.000724 kPa and 0.000696 kPa and 0.000678 kPa
393.17 K	0.000864 kPa and 0.000841 kPa and 0.000826 kPa
395.17 K	0.001037 kPa and 0.001005 kPa and 0.000971 kPa

Settings	Molar enthalpy of transition or fusion [kcal/mol]	Normal melting temperature [°C]
[1]	–	189.20
[2]	6.04	–

COc1cc(N)cc(C(=O)O)c1 [3-amino-5-methoxybenzoic acid]
[1]
Settings	vapor or sublimation pressure
380.16 K	0.000125 kPa and 0.000123 kPa
381.19 K	0.000138 kPa and 0.000135 kPa and 0.000131 kPa
383.18 K	0.000174 kPa and 0.000164 kPa and 0.000156 kPa
385.16 K	0.000201 kPa and 0.000217 kPa and 0.000208 kPa
387.2 K	0.000269 kPa and 0.000253 kPa and 0.000242 kPa
389.16 K	0.000325 kPa and 0.000316 kPa and 0.000301 kPa
393.19 K	0.000511 kPa and 0.00049 kPa and 0.000473 kPa
395.18 K	0.000631 kPa and 0.000591 kPa and 0.00057 kPa
397.18 K	0.000773 kPa
399.19 K	0.000917 kPa and 0.000887 kPa and 0.000862 kPa
400.18 K	0.001003 kPa and 0.00094 kPa and 0.000926 kPa

Settings	Molar enthalpy of transition or fusion [kcal/mol]	Normal melting temperature [°C]
[1]	–	183.79
[2]	5.35	–

COc1ccc(C(=O)O)cc1N [3-amino-4-methoxybenzoic acid]
[1]
Settings	vapor or sublimation pressure
379.67 K	0.00014 kPa and 0.000138 kPa and 0.000135 kPa
381.72 K	0.000174 kPa and 0.000169 kPa and 0.000164 kPa
383.68 K	0.000215 kPa and 0.000205 kPa and 0.000199 kPa
385.16 K	0.000247 kPa and 0.000252 kPa
387.19 K	0.000306 kPa and 0.000298 kPa and 0.00029 kPa
389.18 K	0.000382 kPa and 0.000363 kPa and 0.000353 kPa
391.17 K	0.000455 kPa
393.21 K	0.000568 kPa and 0.000557 kPa and 0.000536 kPa
395.18 K	0.000698 kPa and 0.000676 kPa
397.2 K	0.000832 kPa and 0.000811 kPa and 0.000786 kPa
399.18 K	0.001028 kPa and 0.000967 kPa and 0.000941 kPa

Settings	Molar enthalpy of transition or fusion [kcal/mol]	Normal melting temperature [°C]
[1]	–	204.72
[2]	6.06	–
